Source: patent US10100001B2, “Adenylyl cyclase inhibitors for neuropathic and inflammatory pain” (Purdue Research Foundation, priority 2015, dated 2018)

What was measured:
AC1 = biological target: T1, AC1 (Homo sapiens, UniProt Q08828); assay: Inhibition of A23187-mediated (Ca2+-stimulated) cAMP accumulation in HEK cells stably expressing AC1; assay type: cell-based; settings: for inhibition at 4 µM / inhibition at 40 µM: HEK293, read-out: AC1 Inhibition Percentage; for inhibition at 4 µM: 4 μM compound; for inhibition at 40 µM: 40 μM compound; for IC50: HEK cells stably expressing AC1, inhibitors 30 min, then 3 μM A23187 with IBMX, average and S.E.M. of at least three independent experiments, read-out: IC50 for inhibition of the A23187-mediated cAMP response of AC1
T1 construct: expressed in transfected cells
Method: HEK cells stably expressing AC1 were treated with inhibitors for 30 min, and subsequently incubated with 3 μM A23187 in the presence of 2 mM IBMX. Data represent the average and S.E.M. of at least three independent experiments.
A23187 is a Ca2+ ionophore, which promotes Ca2+ binding to calmodulin in the cells and, subsequent stimulation of AC1.
HEK (human embryonic kidney) cells stably expressing human AC1, were cultured in Dubelcco's Modified Eagle Medium (Life Technologies, Grand Island, N.Y.) supplemented with 5% bovine calf serum (Hyclone, Logan, Utah), 5% fetal clone I (Hyclone, Logan, Utah), Antibiotic-Antimycotic (Life Technologies, Grand Island, N.Y.), and G418 (Invivogen, San Diego, Calif.). The cells were grown to confluency in 15 cm disses, harvested using Cell Dissociation Buffer (Life Technologies, Grand Island, N.Y.), and resuspended in 4 ml of fetal bovine serum (Hyclone, Logan, Utah) containing 10% dimethyl sulfoxide (Sigma-Aldrich, St. Louis, Mo.). 1 ml of cell suspension was added to cryovials that were incubated overnight at −80° C. in a CoolCell device (BioCision, Larkspur, Calif.) for cryopreservation. On the following day, cryovials were stored in liquid N2 until the assay day.
Cryopreserved HEK-AC1 cells were thawed in a 37° C. water-bath, resuspended in 10 ml optiMEM (Life Technologies, Grand Island, N.Y.) and centrifuged at 500×g for 5 min. The cells were resuspended in 10 ml optiMEM and the centrifugation step was repeated. Cells were then resuspended in 1 ml optiMEM and counted using a Countess automated cell counter (Life Technologies, Grand Island, N.Y.). Cells were added to a white, flat bottom, low-volume, tissue culture-treated 384 well plate (PerkinElmer, Shelton, Conn.) at a final density of 2500 cells/well. The plate was centrifuged for 1 min at 100×g and incubated in a 37° C. humidified incubator for 1 h. […] Following this incubation A23187 (Sigma-Aldrich, St. Louis, Mo.) (3 μM final concentration) containing 3-isobutyl-1-methylxanthine (Sigma-Aldrich, St. Louis, Mo.) (0.5 mM final concentration) was added. The plate was centrifuged for 1 min at 100×g and incubated at room temperature for 1 h. Cyclic AMP accumulation was measured using Cisbio's dynamic 2 kit (Cisbio Bioassays, Bedford, Mass.) according to the manufacturer's instructions. Plates were analyzed for fluorescent emissions at 620 nm and 665 nm using 330 nm as the excitation wavelength in a Cytation 3 Cell Imaging Multi-Mode Reader (Biotek, Winooski, Vt.), and ratiometric analysis was carried out by dividing the 665 nm emissions by the 620 nm emissions to extrapolate the cAMP concentrations from a cAMP standard curve. The data represent the average of at least three independent experiments ran in duplicate.

[1] = system: neuroinflammatory and neuropathic pain rodent models; settings: cited from earlier work

T1 sequence (Q08828 whole entry): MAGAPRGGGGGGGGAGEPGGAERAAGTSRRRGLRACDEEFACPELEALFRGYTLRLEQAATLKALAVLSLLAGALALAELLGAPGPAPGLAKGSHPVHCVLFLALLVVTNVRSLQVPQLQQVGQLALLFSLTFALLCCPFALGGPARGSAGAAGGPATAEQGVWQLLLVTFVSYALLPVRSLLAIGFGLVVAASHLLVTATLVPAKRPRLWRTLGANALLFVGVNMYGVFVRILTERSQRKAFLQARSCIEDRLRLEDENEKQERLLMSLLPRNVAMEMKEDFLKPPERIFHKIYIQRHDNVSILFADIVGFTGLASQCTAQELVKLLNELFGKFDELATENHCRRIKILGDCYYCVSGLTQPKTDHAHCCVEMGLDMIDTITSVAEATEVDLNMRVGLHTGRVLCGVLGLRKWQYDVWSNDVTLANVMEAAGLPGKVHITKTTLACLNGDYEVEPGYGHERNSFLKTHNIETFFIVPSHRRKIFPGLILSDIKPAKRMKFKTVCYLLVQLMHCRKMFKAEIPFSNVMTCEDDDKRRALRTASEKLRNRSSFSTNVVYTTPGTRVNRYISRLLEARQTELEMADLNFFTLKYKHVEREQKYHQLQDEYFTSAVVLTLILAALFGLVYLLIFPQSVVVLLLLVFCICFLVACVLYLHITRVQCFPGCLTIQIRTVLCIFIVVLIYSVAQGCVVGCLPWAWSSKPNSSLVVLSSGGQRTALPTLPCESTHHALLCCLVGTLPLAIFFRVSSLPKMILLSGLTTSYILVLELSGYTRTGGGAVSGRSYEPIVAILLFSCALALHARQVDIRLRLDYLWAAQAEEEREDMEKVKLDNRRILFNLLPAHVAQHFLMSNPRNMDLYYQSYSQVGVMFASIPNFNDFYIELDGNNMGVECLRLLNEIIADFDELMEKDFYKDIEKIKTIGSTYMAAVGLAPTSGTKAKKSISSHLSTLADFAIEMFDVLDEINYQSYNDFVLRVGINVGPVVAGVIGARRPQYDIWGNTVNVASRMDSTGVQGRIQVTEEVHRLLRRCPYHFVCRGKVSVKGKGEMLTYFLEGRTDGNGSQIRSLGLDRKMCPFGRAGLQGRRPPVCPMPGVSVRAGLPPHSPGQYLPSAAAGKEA

Row | Structure (SMILES) | inhibition at 4 µM (AC1) [%] | inhibition at 40 µM (AC1) [%] | IC50 (AC1) [µM] | analgesic effects [1]
1 | Fc1ccc(/C=C/CN(CCc2c[nH]c3ccccc23)Cc2ccccc2)cc1 [Compound 7ae, (E)-N-(2-(1H-indol-3-yl)ethyl)-N-benzyl-3-(4-fluorophenyl)prop-2-en-1-amine] | 47 | 91 | 12.9 | 
2 | CN(C/C=C/c1ccc(C(F)(F)F)cc1)Cc1cccc2ccccc12 [Compound 7fh, (E)-N-methyl-N-(naphthalen-1-ylmethyl)-3-(4-(trifluoromethyl)phenyl)prop-2-en-1-amine] | 30 | 87 |  | 
3 | Cc1cccc(/C=C/CN(C)Cc2cccc3ccccc23)c1 [Compound 7fb, (E)-N-methyl-N-(naphthalen-1-ylmethyl)-3-m-tolylprop-2-en-1-amine] | 2 | 63 |  | 
4 | Cc1ccccc1/C=C/CN(C)Cc1cccc2ccccc12 [Compound 7fc, (E)-N-methyl-N-(naphthalen-1-ylmethyl)-3-o-tolylprop-2-en-1-amine] | -71 | 77 |  | 
5 | CN(C/C=C/c1ccc(I)cc1)Cc1cccc2ccccc12 [Compound 7fd, (E)-3-(4-iodophenyl)-N-methyl-N-(naphthalen-1-ylmethyl)prop-2-en-1-amine] | 11 | 94 |  | 
6 | Clc1ccc(/C=C/CN(CCc2c[nH]c3ccccc23)Cc2ccccc2)cc1 [Compound 7af, (E)-N-(2-(1H-indol-3-yl)ethyl)-N-benzyl-3-(4-chlorophenyl)prop-2-en-1-amine] | 30 | 98 |  | 
7 | CN(C/C=C/c1cccc([N+](=O)[O-])c1)Cc1cccc2ccccc12 [Compound 7fl, (E)-N-methyl-N-(naphthalen-1-ylmethyl)-3-(3-nitrophenyl)prop-2-en-1-amine] | -28 | 62 |  | 
8 | CN(C/C=C/c1ccc(Br)cc1)Cc1cccc2ccccc12 [Compound 7fg, (E)-3-(4-bromophenyl)-N-methyl-N-(naphthalen-1-ylmethyl)prop-2-en-1-amine] | -61 | 93 |  | 
9 | COc1ccc2c(c1)C(c1ccccc1)CN(C/C=C/c1ccc(F)cc1)CC2 (centres unmarked) [Compound 7jd, (E)-3-(3-(4-fluorophenyl)allyl)-8-methoxy-1-phenyl-2,3,4,5-tetrahydro-1H-benzo[d]azepine] | 49 | 91 | 14.8 | 
10 | COC(=O)CCCN(C/C=C/c1ccc(Cl)cc1)Cc1ccc(F)cc1 [Compound 7gc, (E)-methyl 4-((3-(4-chlorophenyl)allyl)(4-fluorobenzyl)amino)butanoate] | -24 | 70 |  | 
11 | Nc1ncnc2c1ncn2CCNCCCCCO [NB001] |  |  |  | analgesic effects
12 | COc1ccc2c(c1)C(c1ccccc1)CN(C/C=C/c1ccc(Cl)cc1)CC2 (centres unmarked) [Compound 7je, (E)-3-(3-(4-chlorophenyl)allyl)-8-methoxy-1-phenyl-2,3,4,5-tetrahydro-1H-benzo[d]azepine] | 33 | 78 | 9.1 | 
13 | Cn1cc(CCN(C/C=C/c2ccccc2)Cc2ccccc2)c2ccccc21 [Compound 7d, (E)-N-benzyl-N-(2-(1-methyl-1H-indol-3-yl)ethyl)-3-phenylprop-2-en-1-amine] | -8 | 101 |  | 
14 | COc1ccc2c(c1)C(c1ccc(Br)cc1)CN(C/C=C/c1ccc(C)cc1)CC2 (centres unmarked) [Compound 7kb, (E)-1-(4-bromophenyl)-8-methoxy-3-(3-p-tolylallyl)-2,3,4,5-tetrahydro-1H-benzo[d]azepine] | 8 | 11 |  | 
15 | COc1ccc2c(c1)C(c1ccccc1)CN(CC=Cc1ccccc1)CC2 (centres unmarked) [Compound 7ja, 3-cinnamyl-8-methoxy-1-phenyl-2,3,4,5-tetrahydro-1H-benzo[d]azepine] | 72 | 95 |  | 
